Some test systems named below: CAKI-1; CCRF-CEM; EKVX; HCC 2998; IGROV-1; KM12; NCI-H226; NCI-H522; OVCAR-5; RXF 393; SF-295; SF-539; SK-MEL-5; SN12C; SNB-19; SR; SW-620; T47D; UO-31; NCI-H23.
Test in all cases: DTP human tumour cell line panel, 48 h

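Where inhibition never reached the appropriate level, the endpoint shown equals the highest concentration tested. Otherwise, values were interpolated linearly from a five-concentration, 48-hour dose response in 96-well plates. Here, GI50 denotes the concentration required for 50% inhibition of growth.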 The source made the active and inactive calls. Rule as the data show it: active = GI50 up to about 1.1 µM and inactive = higher. Some results are limits rather than exact numbers.

For the molecule `Nc1nc(Cl)c(N)c(NCC2(CO)CCCC2)n1`, the GI50 (commonly the concentration giving 50% growth inhibition) is > 100 µM (inactive) with CAKI-1; > 100 µM (inactive) in the assay on CCRF-CEM; 20.7 µM (inactive) with EKVX; > 100 µM (inactive) in the assay with HCC 2998; 84.7 µM (inactive) in the assay on IGROV-1; > 100 µM (inactive) with KM12. Moreover, the GI50 is > 100 µM (inactive) in the assay with NCI-H226; > 100 µM (inactive) in the assay on NCI-H522; > 100 µM (inactive) with OVCAR-5; 78.7 µM (inactive) in the assay on RXF 393; 86.7 µM (inactive) in the assay with SF-295; > 100 µM (inactive) in the assay with SF-539. In addition, the GI50 is 30.8 µM (inactive) in the assay with SK-MEL-5; > 100 µM (inactive) in the assay with SN12C; > 100 µM (inactive) in the assay on SNB-19; > 100 µM (inactive) in the assay on SR; > 100 µM (inactive) with SW-620; 0.826 µM (active) with T47D. The GI50 in the assay on UO-31 is > 100 µM (inactive).
Turning to `O=C1CC2(CCNCC2)C(=O)N1N1CCOCC1`, the GI50 in the assay with CAKI-1, in the assay on CCRF-CEM, in the assay with EKVX, in the assay on HCC 2998, with IGROV-1 and in the assay with KM12 was > 100 µM (inactive) each time. For the same molecule, the GI50 in the assay on NCI-H226, in the assay with NCI-H23, in the assay on NCI-H522, in the assay with OVCAR-5, in the assay with RXF 393 and in the assay with SF-295 was > 100 µM (inactive) each time. Further, the GI50 with SF-539, in the assay with SK-MEL-5, in the assay on SN12C, with SNB-19, with SR and with SW-620 was > 100 µM (inactive) in each case. The GI50 in the assay with T47D and in the assay on UO-31 was > 100 µM (inactive) throughout.
With `C=CCn1c(=O)ccn(/C(=C/C(=O)OCC)C(=O)OCC)c1=O`, the GI50 in the assay on CAKI-1 was 1.91 µM (inactive); in the assay with CCRF-CEM, 2.08 µM (inactive); in the assay with EKVX, 17.2 µM (inactive); in the assay with HCC 2998, 16.5 µM (inactive); in the assay with IGROV-1, 15.3 µM (inactive); in the assay on KM12, 17.5 µM (inactive). Moreover, the GI50 with NCI-H226 is 13.9 µM (inactive); in the assay on NCI-H23 it was 17.1 µM (inactive); in the assay on NCI-H522, 2.44 µM (inactive); in the assay on OVCAR-5, 15.6 µM (inactive); in the assay on RXF 393 it was 14.1 µM (inactive); with SF-295, > 52.4 µM (inactive). Further, the GI50 with SF-539 is 24 µM (inactive); with SK-MEL-5, 15.1 µM (inactive); with SN12C, 8.73 µM (inactive); in the assay on SNB-19, 29.4 µM (inactive); with SR, 6.4 µM (inactive); with SW-620 it was 2.18 µM (inactive). Moreover, the GI50 is 5.13 µM (inactive) in the assay with T47D and 14.9 µM (inactive) with UO-31.
For the molecule `N#CC(c1ccc(O)cc1)N1CCN(C(C#N)c2ccc(O)cc2)CC1` (stereo unspecified), the GI50 in the assay on CAKI-1 is > 100 µM (inactive); in the assay on CCRF-CEM, > 100 µM (inactive); in the assay on EKVX, 35.7 µM (inactive); with HCC 2998 it was > 100 µM (inactive); in the assay with IGROV-1, 51.1 µM (inactive); in the assay on KM12, > 100 µM (inactive). Moreover, the GI50 was 34.3 µM (inactive) in the assay on NCI-H226; > 100 µM (inactive) with NCI-H23; > 100 µM (inactive) in the assay on NCI-H522; > 100 µM (inactive) in the assay with OVCAR-5; 33.9 µM (inactive) in the assay on RXF 393; 38.3 µM (inactive) with SF-295. Moreover, the GI50 is 34.7 µM (inactive) in the assay on SF-539; > 100 µM (inactive) in the assay on SK-MEL-5; > 87.1 µM (inactive) in the assay on SN12C; 24.9 µM (inactive) in the assay on SNB-19; > 100 µM (inactive) with SR; > 100 µM (inactive) with SW-620. Further, the GI50 is 39.5 µM (inactive) with T47D and > 100 µM (inactive) with UO-31.
Turning to `CC1(C)C[C@H](O)[C@H](O)[C@]23C(=O)O[C@H](O)[C@H]2C(C=O)=CC[C@@H]13`, the GI50 in the assay with CAKI-1, in the assay with CCRF-CEM, in the assay on EKVX, in the assay with HCC 2998, in the assay with IGROV-1 and in the assay with KM12 was > 100 µM (inactive) each time. The GI50 with NCI-H226, in the assay on NCI-H23, in the assay with NCI-H522, in the assay with RXF 393, with SF-295 and with SF-539 was > 100 µM (inactive) in each case. Also, the GI50 in the assay with SK-MEL-5 is > 100 µM (inactive); in the assay on SN12C, > 100 µM (inactive); in the assay on SNB-19 it was > 100 µM (inactive); in the assay on SR it was > 100 µM (inactive); with SW-620, > 100 µM (inactive); in the assay with T47D it was 73.1 µM (inactive). Further, in the assay on UO-31, the GI50 is > 100 µM (inactive).
With `CCOC(=O)c1c(N2CCCC2)[nH]c(=O)c(C(c2c(O)c(C(=O)OCC)c(N3CCCC3)[nH]c2=O)C(C)C)c1O`, the GI50 in the assay with CAKI-1 was 48 µM (inactive); in the assay with CCRF-CEM it was > 100 µM (inactive); in the assay with EKVX, > 100 µM (inactive); in the assay on HCC 2998 it was 52.8 µM (inactive); with KM12, > 100 µM (inactive); with NCI-H226 it was > 100 µM (inactive). Also, the GI50 in the assay on NCI-H23 is 71.1 µM (inactive); in the assay with NCI-H522 it was 43.5 µM (inactive); in the assay on OVCAR-5 it was 33.2 µM (inactive); in the assay with RXF 393, 43 µM (inactive); in the assay with SF-295 it was > 100 µM (inactive); with SF-539 it was > 100 µM (inactive). In addition, the GI50 in the assay with SK-MEL-5 is > 100 µM (inactive); in the assay with SN12C, > 100 µM (inactive); with SNB-19, 70.6 µM (inactive); in the assay on SR, 37.5 µM (inactive); in the assay with SW-620, > 100 µM (inactive); in the assay with T47D it was > 100 µM (inactive). Moreover, the GI50 with UO-31 is > 100 µM (inactive).
As for `O=c1oc2ccc([N+](=O)[O-])cc2cc1-c1csc(-c2ccccc2)n1`, the GI50 in the assay on CAKI-1, in the assay on CCRF-CEM, in the assay on EKVX, in the assay on HCC 2998, in the assay with IGROV-1 and in the assay with KM12 was > 100 µM (inactive) each time. The GI50 in the assay on NCI-H226, in the assay on NCI-H522, with OVCAR-5, with RXF 393, in the assay on SF-295 and in the assay with SF-539 was > 100 µM (inactive) throughout. Moreover, the GI50 with SK-MEL-5, in the assay with SN12C, with SNB-19, in the assay on SR, in the assay with SW-620 and with T47D was > 100 µM (inactive) throughout. The GI50 in the assay with UO-31 was > 100 µM (inactive).

The record behind these values is ChEMBL document CHEMBL1201862, “PubChem BioAssay data set” (2004).
